Key:
[1] = Inhibition of HIV-1 integrase strand transfer activity assessed as reduction in viral replication in presence of 10% fetal bovine serum and 15 mg/mL human serum albumin
[2] = Inhibition of HIV-1 integrase strand transfer activity assessed as reduction in viral replication in presence of 10% fetal bovine serum
[3] = Inhibition of HIV-1 integrase strand transfer activity assessed as reduction in viral replication in presence of 40% human serum

Row | Compound | EC50 [1] [nM] | EC50 [2] [nM] | EC50 [3] [nM]
1 | O=C(NCc1ccc(F)cc1S(=O)(=O)N1CCOCC1)c1nc2n(c(=O)c1O)CCCC21CCCC1 | 14 | 3 | –
2 | O=C(NCc1ccc(F)cc1N1CCCCS1(=O)=O)c1nc2n(c(=O)c1O)CCCC21CCCC1 | 21 | 2 | –
3 | CC1(C)OCCn2c1nc(C(=O)NCc1ccc(F)cc1N1CCCCS1(=O)=O)c(O)c2=O | 7 | 2 | –
4 | Cc1cc(CNC(=O)c2nc3n(c(=O)c2O)CCOC3(C)C)ccc1F | 90 | 1 | –
5 | Cc1cc(CNC(=O)c2nc3n(c(=O)c2O)CCCC32CCCC2)ccc1F | 149 | 5 | –
6 | CS(=O)(=O)c1cc(F)ccc1CNC(=O)c1nc2n(c(=O)c1O)CCCC21CCCC1 | 8 | 1 | –
7 | CN(C)S(=O)(=O)c1cc(F)ccc1CNC(=O)c1nc2n(c(=O)c1O)CCCC21CCCC1 | 27 | 3 | –
8 | CC1(C)OCCn2c1nc(C(=O)NCc1ccc(F)cc1S(C)(=O)=O)c(O)c2=O | 6 | 3 | –
9 | CC1(C)OCCn2c1nc(C(=O)NCc1ccc(F)cc1N1CCOCC1)c(O)c2=O | 19 | 2 | –
10 | CN(C)S(=O)(=O)c1c(CNC(=O)c2nc3n(c(=O)c2O)CCOC3(C)C)ccc(F)c1F | 12 | 3 | –
11 | O=C(NCc1ccc(F)cc1)c1nc2n(c(=O)c1O)CCCC21CCCC1 | 19 | 2 | –
12 | CC1(C)OCCn2c1nc(C(=O)NCc1ccc(F)cc1)c(O)c2=O | 17 | 2 | 25
13 | CC1(C)OCCn2c1nc(C(=O)NCc1ccc(F)c(Cl)c1)c(O)c2=O | 84 | 2 | –
14 | CNC(=O)c1cc(F)ccc1CNC(=O)c1nc2n(c(=O)c1O)CCOC2(C)C | 3 | 2 | –
15 | Cc1cc(F)ccc1CNC(=O)c1nc2n(c(=O)c1O)CCOC2(C)C | 557 | 21 | –
16 | CC1(C)OCCn2c1nc(C(=O)NCc1ccc(F)cc1Cl)c(O)c2=O | 857 | 53 | –
